From ChEMBL document CHEMBL5131391, “One-pot three-component synthesis of novel pyrazolo[3,4-b]pyridines as potent antileukemic agents” (Eur J Med Chem, 2022)

How the values were obtained:
Assay type in all cases: functional
[1] = system: CAKI-1; test: Antiproliferative activity against human CAKI-1 cells assessed as growth inhibition at 10 uM measured after 48 hrs by NCI protocol based SRB assay relative to control; conditions: read-out: GI
[2] = system: MV4-11; test: Antiproliferative activity against human MV4-11 cells assessed as reduction in cell viability incubated for 72 hrs by resazurin dye based assay; conditions: MV4-11, 72 h
[3] = system: HOP-62; test: Antiproliferative activity against human HOP-62 cells assessed as growth inhibition at 10 uM measured after 48 hrs by NCI protocol based SRB assay relative to control; conditions: read-out: GI
[4] = system: M14; test: Antiproliferative activity against human M14 cells assessed as growth inhibition at 10 uM measured after 48 hrs by NCI protocol based SRB assay relative to control; conditions: read-out: GI
[5] = system: NCI/ADR-RES; test: Antiproliferative activity against human NCl/ADR-RES cells assessed as growth inhibition at 10 uM measured after 48 hrs by NCI protocol based SRB assay relative to control; conditions: read-out: GI
[6] = system: COLO 205; test: Antiproliferative activity against human COLO 205 cells assessed as growth inhibition at 10 uM measured after 48 hrs by NCI protocol based SRB assay relative to control; conditions: read-out: GI
[7] = system: PC-3; test: Antiproliferative activity against human PC-3 cells assessed as growth inhibition at 10 uM measured after 48 hrs by NCI protocol based SRB assay relative to control; conditions: read-out: GI
[8] = system: IGROV-1; test: Antiproliferative activity against human IGROV-1 cells assessed as growth inhibition at 10 uM measured after 48 hrs by NCI protocol based SRB assay relative to control; conditions: read-out: GI
[9] = system: SK-MEL-28; test: Antiproliferative activity against human SK-MEL-28 cells assessed as growth inhibition at 10 uM measured after 48 hrs by NCI protocol based SRB assay relative to control; conditions: read-out: GI
[10] = system: SF-295; test: Antiproliferative activity against human SF-295 cells assessed as growth inhibition at 10 uM measured after 48 hrs by NCI protocol based SRB assay relative to control; conditions: read-out: GI
[11] = system: Malme-3M; test: Antiproliferative activity against human Malme-3M cells assessed as growth inhibition at 10 uM measured after 48 hrs by NCI protocol based SRB assay relative to control; conditions: read-out: GI
[12] = system: BT-549; test: Antiproliferative activity against human BT-549 cells assessed as growth inhibition at 10 uM measured after 48 hrs by NCI protocol based SRB assay relative to control; conditions: read-out: GI
[13] = system: 786-0; test: Antiproliferative activity against human 786-0 cells assessed as growth inhibition at 10 uM measured after 48 hrs by NCI protocol based SRB assay relative to control; conditions: read-out: GI
[14] = system: MCF7; test: Antiproliferative activity against human MCF7 cells assessed as growth inhibition at 10 uM measured after 48 hrs by NCI protocol based SRB assay relative to control; conditions: read-out: GI
[15] = system: NCI-H226; test: Antiproliferative activity against human NCI-H226 cells assessed as growth inhibition at 10 uM measured after 48 hrs by NCI protocol based SRB assay relative to control; conditions: read-out: GI
[16] = system: NCI-H522; test: Antiproliferative activity against human NCI-H522 cells assessed as growth inhibition at 10 uM measured after 48 hrs by NCI protocol based SRB assay relative to control; conditions: read-out: GI
[17] = system: K562; test: Antiproliferative activity against human K562 cells assessed as growth inhibition at 10 uM measured after 48 hrs by NCI protocol based SRB assay relative to control; conditions: read-out: GI
[18] = system: SN12C; test: Antiproliferative activity against human SN12C cells assessed as growth inhibition at 10 uM measured after 48 hrs by NCI protocol based SRB assay relative to control; conditions: read-out: GI
[19] = system: ACHN; test: Antiproliferative activity against human ACHN cells assessed as growth inhibition at 10 uM measured after 48 hrs by NCI protocol based SRB assay relative to control; conditions: read-out: GI
[20] = system: NCI-H322M; test: Antiproliferative activity against human NCI-H322M cells assessed as growth inhibition at 10 uM measured after 48 hrs by NCI protocol based SRB assay relative to control; conditions: read-out: GI
[21] = system: CCRF-CEM; test: Antiproliferative activity against human CCRF-CEM cells assessed as growth inhibition at 10 uM measured after 48 hrs by NCI protocol based SRB assay relative to control; conditions: read-out: GI
[22] = system: UACC-257; test: Antiproliferative activity against human UACC-257 cells assessed as growth inhibition at 10 uM measured after 48 hrs by NCI protocol based SRB assay relative to control; conditions: read-out: GI
[23] = system: MDA-MB-435; test: Antiproliferative activity against human MDA-MB-435 cells assessed as growth inhibition at 10 uM measured after 48 hrs by NCI protocol based SRB assay relative to control; conditions: read-out: GI
[24] = system: T47D; test: Antiproliferative activity against human T47D cells assessed as growth inhibition at 10 uM measured after 48 hrs by NCI protocol based SRB assay relative to control; conditions: read-out: GI
[25] = system: SW-620; test: Antiproliferative activity against human SW-620 cells assessed as growth inhibition at 10 uM measured after 48 hrs by NCI protocol based SRB assay relative to control; conditions: read-out: GI
[26] = system: SF-268; test: Antiproliferative activity against human SF-268 cells assessed as growth inhibition at 10 uM measured after 48 hrs by NCI protocol based SRB assay relative to control; conditions: read-out: GI
[27] = system: SF-539; test: Antiproliferative activity against human SF-539 cells assessed as growth inhibition at 10 uM measured after 48 hrs by NCI protocol based SRB assay relative to control; conditions: read-out: GI
[28] = system: DU-145; test: Antiproliferative activity against human DU-145 cells assessed as growth inhibition at 10 uM measured after 48 hrs by NCI protocol based SRB assay relative to control; conditions: read-out: GI
[29] = system: UACC-62; test: Antiproliferative activity against human UACC-62 cells assessed as growth inhibition at 10 uM measured after 48 hrs by NCI protocol based SRB assay relative to control; conditions: read-out: GI
[30] = system: CCRF-CEM; test: Antiproliferative activity against human CEM cells assessed as reduction in cell viability incubated for 72 hrs by resazurin dye based assay
[31] = system: HCT-116; test: Antiproliferative activity against human HCT-116 cells assessed as growth inhibition at 10 uM measured after 48 hrs by NCI protocol based SRB assay relative to control; conditions: read-out: GI
[32] = system: RPMI-8226; test: Antiproliferative activity against human RPMI-8226 cells assessed as growth inhibition at 10 uM measured after 48 hrs by NCI protocol based SRB assay relative to control; conditions: read-out: GI

N#Cc1c(-c2ccco2)nc2c(c(-c3ccccc3)nn2-c2ccccc2)c1-c1ccc(O)cc1
inhibition of growth at 10 µM [1]: 42%
IC50 [2]: 13.8 µM
inhibition of growth at 10 µM [3]: 149%
inhibition of growth at 10 µM [4]: 35%
inhibition of growth at 10 µM [5]: 24%
inhibition of growth at 10 µM [6]: 97%
inhibition of growth at 10 µM [7]: 77%
inhibition of growth at 10 µM [8]: 16%
inhibition of growth at 10 µM [9]: 24%
inhibition of growth at 10 µM [10]: 34%
inhibition of growth at 10 µM [11]: 66%
inhibition of growth at 10 µM [12]: 36%
inhibition of growth at 10 µM [13]: 41%
inhibition of growth at 10 µM [14]: 53%
inhibition of growth at 10 µM [15]: 27%
inhibition of growth at 10 µM [16]: 81%
inhibition of growth at 10 µM [17]: 85%
inhibition of growth at 10 µM [18]: 18%
inhibition of growth at 10 µM [19]: 28%
inhibition of growth at 10 µM [20]: 19%
inhibition of growth at 10 µM [21]: 59%
inhibition of growth at 10 µM [22]: 40%
inhibition of growth at 10 µM [23]: 38%
inhibition of growth at 10 µM [24]: 82%
inhibition of growth at 10 µM [25]: 53%
inhibition of growth at 10 µM [26]: 33%
inhibition of growth at 10 µM [27]: 18%
inhibition of growth at 10 µM [28]: 25%
inhibition of growth at 10 µM [29]: 11%
IC50 [30]: 23.9 µM
inhibition of growth at 10 µM [31]: 64%
inhibition of growth at 10 µM [32]: 45%
